Entries after “also recorded” stand apart in the source; their conditions may differ.
Columns and labels:
[1] = tested on: MDA-MB435S xenograft; experiment: MDA-MB435S xenograft, multiple dose regimen; type: in vivo, Nu/Nu mice; conditions: 0.002 and 0.2 mg/kg, multiple i.v. injections
Experimental: In order to determine the minimal effective dose necessary to reduce MDA-MB435S xenograft weights in a multiple dose regimen, Nu/Nu female mice, outbred strain, age 8 weeks (Charles River), were injected (s.c.) into the interscapular region with a MDA-MB435S (passage #253)/Matrigel suspension (2×10^6 cells/mouse) as previously described above. […] The doses were given as a single bolus intravenous injection via lateral tail vein on days 15, 16, 17, 20, 21, 22, 23, 27, 28, 29, 30, 33, 34, 35, 36, 37, 38, 40, 41, 42 after tumor cell inoculation. Saline injections served as control groups.
Each treatment group consisted of 16 mice. During the entire study tumor volumes were recorded twice weekly. Final necropsy was conducted on day 45 after tumor cell injection. […] due to occlusion of the tail vein in most mice. At study endpoint body weight, tumor weights were determined and fixed in phosphate buffered 10% formalin.

[2] = tested on: MDA-MB-435 cells; experiment: Fluorescence microscopy, MDA-MB-435 breast cancer cells; type: cell-based, human; conditions: 10 μM, 5 minutes exposure
Experimental: In brief, human breast cancer cells (MDA-MB435, passage #252) were seeded onto culture dishes. The following markers were introduced prior to adding EP100: DRAQ5™ (Alexis Corporation)—blue—was used for staining of the nucleus and MitoTracker® Red CMXRos (M7512) (Molecular Probes, Inc. OR) were applied for visualizing intact mitochondria. Cell membranes were stained with wheat germ alexa fluor green conjugates (Molecular Probes, Inc. OR).
Cells were loaded first with Mitotracker dye, according to the manufacturers recommendation. […] Culture dishes with saline only served as controls. The supernatant was removed and the remaining cells prepared for fluorescence microscopy imaging.

[3] = tested on: MDA-MB-435S xenograft; experiment: MDA-MB-435S xenograft, kinetics after a single injection; type: in vivo, Nu/Nu mice; conditions: single i.v. injection 0.2 and 2 mg/kg
Experimental: In brief, Nu/Nu female mice, outbred strain, age 5 weeks (Charles River), were injected (s.c.) into the interscapular region with a MDA-MB-435 S (passage #249)/Matrigel suspension (2.4×10^6 cells/mouse) as described in Example 10. […] The doses were given as a single bolus intravenous injection via lateral tail vein.
Mice were sacrificed 1, 2 and 16 hours after treatment with Phor 18-LHRH (338613) or saline. At study endpoint body weight, tumor weights were determined and tumors were fixed in phosphate buffered 10% formalin.

[4] = tested on: MDA-MB-435S xenograft; experiment: MDA-MB-435S xenograft, once weekly for 3 weeks (minimal effective dose); type: in vivo, Nu/Nu mice; conditions: H&E
Experimental: (§1) In vivo efficacy studies were conducted as monotherapy, or a combination therapy with standard of care treatments in nude mice bearing human breast cancer xenografts: MDA-MB435S.luc (s.c.), MCF-7 (estrogen receptor alpha positive), human ovarian cancer xenografts: OVCAR-3, (s.c.), human prostate cancer xenografts: PC-3 (androgen receptor negative).
(§2) Mice were sacrificed one week after the last injection and blood collected for chemistry panel, tumor weights and body weights were recorded. Part of the tumors were fixed in PBS buffered 10% formalin for histological evaluation.
To determine the minimal effective dose necessary to reduce MDA-MB-435S xenograft weights in a single dose regimen, Nu/Nu female mice, outbred strain, age 5 weeks (Charles River), were injected (s.c.) into the interscapular region with a MDA-MB435S (passage #249)/Matrigel suspension (2.4×10^6 cells/mouse) [Leuschner 2006].
Each group consisted of 16 mice, which were injected once a week for 3 weeks. […] During the entire study tumor volumes were recorded twice weekly. […]
Treatment response was determined by tumor weights and tumor weight change at necropsy compared to saline controls and untargeted CLIP71 treatment. […] Statistical evaluation of data sets were conducted in GraphPad Prizm 4 and significance calculated by Wilcoxon signed-rank test.

[5] = tested on: NIH:3T3; type: cell-based, mouse; conditions: non cancerous cell line 3T3
Experimental: (§3) The breast cancer cell lines studied were MDA-MB435S (estrogen receptor alpha negative), MCF-7 and T47D (estrogen receptor alpha positive), ovarian cancer cell lines (OVCAR-3 and SKOV-3), prostate cancer (LNCaP), the non-malignant breast epithelial cell line MCF-10A and the mouse fibroblast cell line NIH:3T3.
(§4) Cells were seeded into 96 well plates at a density of 10,000 cells/well. […] Controls contained USP saline or 0.1% TritonX-100™ as reference for 0 and 100% cell death, respectively. Incubations were terminated by removing the culture media after 2 minutes, 5 minutes, 15 minutes, 30 minutes, 1 hour, 2 hours, 6 hours, 24 and 48 hours. Cell viability was assessed through formazan conversion assay (MTT assay, (CellTiter 96 Aqueous One, Promega # G3582). Formazan conversion was determined using a BioRad Benchmark Plus microplate spectrophotometer dual wavelengths at 490/630 nm at room temperature).
(§5) Data were calculated as fraction of absorption in TritonX-100™ containing wells representing 100% cell death versus 0% cell death in saline containing wells. Cytotoxicity was determined as IC50 using GraphPad Prism version 5.01 for Windows, GraphPad Software, San Diego Calif. […] 4 wells of each individual set of two 96 well plates were compared and analyzed. Statistical analysis for significance was determined by a two-tailed Student's T-test.

[6] = tested on: MDA-MB-435S.luc xenograft; experiment: MDA-MB-435S.luc xenograft, LHRH fusion constructs; type: in vivo, Nu/Nu mice
Experimental: For LHRH fusion constructs, the mouse xenograft model for breast cancer was used. In brief, Nu/Nu female mice, outbred strain, age 5 weeks (Charles River) were injected subcutaneously with a MDA-MB-435S.luc/Matrigel suspension (1×10^6 cells). Treatment was started on day 21 after tumor cell injection and continued on day 26 and 29. The doses for weekly fusion construct injections were 2, 0.2 and 0.02 mg/kg body weight, given as a bolus single injection. All mice were necropsied 34 days after tumor cell injection-baseline values for tumor weights were obtained by sacrificing 8 mice at treatment start. […] Tumor weights were recorded at necropsy, part of the tumors were frozen at −80° C. for luciferase assay determination.
Characteristics of tumors at necropsy are summarized in FIG. 10: (A) tumor weight, (B) changes of tumor weights compared to baseline, (C) total number of live tumor cells, (D) changes of total live tumor cells compared to baseline, and (E) body weights at baseline and necropsy. Viability of tumor cells was determined at the end of the study when tumors were measured for luciferase activity. Treatment efficacy was calculated as difference between measurements at the beginning of treatment compared to the measurement at the end of study (FIGS. 10B and 10D).

[7] = tested on: OVCAR-3 cells; type: cell-based, human; conditions: OVCAR-3 p47, series with increasing incubation time (times not given per value)
Source text: Membranes of non-cancerous cell lines are neutral and are resistant to cytolytic peptides, in contrast to cancer cell lines, which have a high phosphatidic acid content in their outer membrane.
as §3
as §4, with “Incubations were terminated by removing the culture media after 2 minutes, 5 minutes, 15 minutes, 30 minutes, 1 hour, 2 hours, 6 hours, 24 and 48 hours.” left out
as §5

[8] = tested on: MDA-MB-435S.luc cells; experiment: Cell toxicity (MTT) screening in MDA-MB-435S.luc breast cancer cells; type: cell-based, human; conditions: relative to Phor21-βCG-ala (IC50 2.31 μM)
Source text: The human breast cancer cell line MDA-MB-435S.luc, which over expresses chorionic gonadotrophin (CG) and luteinizing hormone-releasing hormone (LHRH) receptors, was used to screen at passage numbers 248-252. The MDA-MB-435S.luc cell line was constructed from the MDA-MB-435S cell line obtained from the American Type Cell Culture Collection by stable transfection with the plasmid PRC/CMV-luc containing the Photinus pyralis luciferase gene and an […] by lipofection. The stably transfected cell line was selected using G418 and the clones with the highest expression for the luciferase gene were tested for their LH and LHRH receptor expression.
MDA-MB435S.luc cells were grown in Leibovitz's L 15 medium, 10% fetal bovine serum, 0.01 mg/ml bovine insulin, 100 IU/ml penicillin, 100 microg/ml streptomycin. The cells were cultured in tight closed flasks. The incubations were conducted using 96 well plates at 10,000 cells per well. Cells were typically seeded into 96 well plates and media was replaced after 48 hours of incubation. Each assay was conducted at increasing concentrations of 0, 0.001, 0.01, 0.05, 0.1, 0.5, 1, 2, 5, 10 and 100 micromolar doses of lytic peptide-binding domain conjugate. […]
Data were processed and analyzed using Graph Pad Prizm 4™ software (Graph Pad Prizm, Inc). Statistical analysis for significance was determined by a two-tailed Student's T-test. […]

[9] = tested on: OVCAR-3; experiment: IC50 in OVCAR-3 ovarian cancer cell line; type: cell-based, human
Experimental: MDA-MB435S.luc cells were grown in Leibovitz's L 15 medium, 10% fetal bovine serum, 0.01 mg/ml bovine insulin, 100 IU/ml penicillin, 100 microg/ml streptomycin. The cells were cultured in tight closed flasks. The incubations were conducted using 96 well plates at 10,000 cells per well. Cells were typically seeded into 96 well plates and media was replaced after 48 hours of incubation. Each assay was conducted at increasing concentrations of 0, 0.001, 0.01, 0.05, 0.1, 0.5, 1, 2, 5, 10 and 100 micromolar doses of lytic peptide-binding domain conjugate. Each lytic peptide-binding domain conjugate provided in lyophilized form and was freshly dissolved in saline and added to cells. The duration of incubation was typically 24 h, and cell viability assays were conducted using formazan conversion assays (MTT assay). Controls contained saline or 0.1% triton as reference for 0 and 100% cell death, respectively.
To ascertain the IC50 of various fusion constructs on different human cancer cell lines compared to cisplatinum, IC50 of fusion constructs were evaluated as in Table 3.

[10] = tested on: MCF-7 xenograft; experiment: MCF-7 breast cancer xenograft; type: in vivo, nude mice; conditions: 2 × 3 wk, 19 d, growth delay
Experimental: as §1
PHOR 18-LHRH (338613) Combination therapies were conducted in a MCF-7 breast cancer xenograft models.
as §2

[11] = tested on: PC-3 xenograft; experiment: PC-3 prostate cancer xenograft; type: in vivo, Nu/Nu mice
Experimental: PC-3 xenografts untreated cause significant weight loss in mice.
In brief, Nu/Nu male mice, outbred strain, age 6 weeks (Charles River) were injected subcutaneously with a PC-3 cells/Matrigel suspension (1×10^6 cells/mouse). Treatment was started on day 15 after tumor cell injection when the tumors were established and continued on days 22 and 29. […]
A group of 12 tumor bearing mice was sacrificed on day 15 and served as baseline group. All mice were necropsied 35 and 36 days after tumor cell injection. Tumor volumes and bodyweights were recorded twice weekly during the study, as well as overall veterinarian examination of mice was conducted.
(§6) Primary tumors, liver, kidney, pancreas, heart, lung, and spleen were collected, fixed in formalin and prepared for histological evaluation. Tumor weights were measured at necropsy, part of the tumors were frozen at −80° C. for LH/CG and LHRH receptor assay determination.

[12] = tested on: NIH:OVCAR-3 xenograft; experiment: OVCAR-3 ovarian cancer xenograft; type: in vivo; conditions: for tumor volume during treatment: Phor18-LHRH 0.02-2 mg/kg, CLIP71 2 mg/kg, cisplatinum 10 mg/kg; for tumor weights at necropsy: mouse, in vivo
Experimental: The xenograft model of the OVCAR-3 human ovarian cancer cell line that present functional LHRH receptors was used in this study. OVCAR-3 represents a slow growing xenograft model and secretes the tumor marker (cancer antigen 125, or […]). It's secretion can be used as treatment response and is a measure of drug activity.
In brief, Nu/Nu female mice, inbred strain, age 5 weeks (Harlan-Sprague Dawley) were injected subcutaneously with a NIH:OVCAR-3 cells/Matrigel suspension (4.6×10^6 cells/mouse). Treatment was started on day 33 after tumor cell injection when the tumors were established and continued on days 41 and 47. The doses for the 3 weekly injections were 0.02, 0.2 and 2 mg/kg body weight, given as a single bolus intravenous injection via lateral tail vein administered once a week for three weeks on days 33, 41 and 47. Necropsies were conducted on day 52. Data are presented as mean SEM. Arrows show dosing.
A group of 9 tumor bearing mice was sacrificed on day 33 and served as baseline group. All mice were necropsied 51-52 days after tumor cell injection. Tumor volumes and bodyweights were recorded twice weekly during the study, as well as overall veterinarian examination of mice was conducted.
as §6
As a biomarker for drug activity, CA125 was determined in serum, collected from each individual mouse at necropsy using a Enzyme Linked Immunoassay for quantitative determination of ovarian cancer antigen CA125 (Assay kit Genway, Biotech, Inc. San Diego, Calif., Catalog #40-052-115009, # BC-1013 according to the manufacturer).
LHRH receptor levels were assessed from formalin fixed tumors. Quantitative immunoperoxidase image analysis was conducted with the Ventana Image Analysis System (VIAS) adjunctive computer assisted image analysis system functionally connected to an interactive microscope (Axio Imager). The quantitative analysis was conducted with the program for quantification of Her2/neu receptor that included morphometric and colorimetric analysis. Receptor status results were reported as percentage of cells showing positive staining of the LHRH receptors under the following criteria: 0 non-immunoreactive, 1+: 1-25% positive, 2+: 26-50% positive, 3+: 51-75% positive cells.

## KFAKFAKKFAKFAKKFAKQHWSYGLRPG [Phor18-LHRH]
[1]
  tumor response: tumor regression at both dose levels; also recorded: eradication of tumor cells
[2]
  effect on plasma membrane (fluorescence microscopy): disintegration of the plasma membrane
[3]
  time after injection to destruction of tumors (histology): 1 hour
[4]
  dose with significant necrosis in tumors (histology): 0.0002 mg/kg
[5]
  IC50: > 10000 nM
[6]; 0.02, 0.2, 2 mg/kg weekly
  tumor volume during treatment / 30 days: smallest tumor volumes
[6]; mouse, in vivo
  overall efficacy in reducing tumor weight and live tumor cells (vs other constructs / reference Phor21-βCG-ala): Equally effective
[7]
  IC50: 500 nM
[8]
  Increased in vitro activity fold (IC50 of 33/IC50 peptide): 2.65 fold
[9]
  IC50: 3000 ± 500 nM
[10]
  Median Tumor Weight vs Saline P < 0.05 (dose): 0.02 mg/kg growth
[11]; PC-3 xenograft, 1 × 3 wk, 21 d
  Median Tumor Weight vs Baseline p < 0.05 (dose): 0.2 mg/kg
[11]; Phor18-LHRH 0.002-2 mg/kg, CLIP71 5 mg/kg
  tumor volume during treatment: Tumor volumes decreased during treatment
[12]; H&E
  dose with significant necrosis in tumor sections: 0.02 mg/kg
[12]; OVCAR-3 xenograft, 1 × 3 wk, 20 d
  Median Tumor Weight vs Baseline p < 0.05 (dose): 0.2 mg/kg
[12]
  tumor volume during treatment: Tumor volumes decreased during treatment
  tumor weights at necropsy: Tumor free mice were found
[12]; greatest at 0.2 and 2 mg/kg (p<0.0002 vs saline)
  serum CA125: CA125 secretion was reduced

## N.N.[Cl][Pt][Cl] [Cisplatinum, reference compound]
[12]
  tumor volume during treatment: no reduction in tumor volume
  tumor weights at necropsy: not effective in reducing tumor weights
[12]; listed as cisplatinum
  tumor volume during treatment: tumor growth was observed

— patent US8318899B2, “Lytic domain fusion constructs and methods of making and using same” (Board of Supervisors of Louisiana State University and …, priority 2008, dated 2012)
